Data as given in ChEMBL document CHEMBL3639137, “3H-imidazo [4, 5-C] pyridine-6-carboxamides as anti-inflammatory agents” (2014).
pIC50: −log10 of the molar value.

Target: T1, Prostaglandin E synthase (Homo sapiens, UniProt O14684)
T1 sequence (O14684 whole entry): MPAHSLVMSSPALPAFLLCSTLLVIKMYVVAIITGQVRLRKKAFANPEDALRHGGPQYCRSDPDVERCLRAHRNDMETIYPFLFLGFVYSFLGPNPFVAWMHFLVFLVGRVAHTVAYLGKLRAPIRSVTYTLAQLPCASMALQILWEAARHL
Experiment: Enzyme Assay: The aim of this assay is to determine the affinity of a test compound for the mPGES-1 enzyme. 47 ul of recombinant human mPGES-1 (0.5 ug protein/well) containing microsomal suspension in a buffer containing GSH, (2.5 mmol/L L-Glutathione reduced, dissolved in 0.1 mol/L Phosphat Buffer pH 7.4) is dispensed in a 384-well plate and thereafter 1 ul of the test compound(s) is/are added and incubated for 25 minutes at room temperature. The enzyme reaction is started by the addition of 2 ul PGH2 (final conc. 2 uM) dissolved in water-free Diglyme. After 60 seconds the reaction is terminated by addition of a stop solution containing FeCl2 (10 uL 0.074 mol/l FeCl2). The samples are diluted between 1:25 in PBS (Phosphate Buffered Saline). 10 ul of the diluted samples are transferred to 384-well low volume plate.

SMILES	pIC50
Cn1c(Nc2c(Cl)ccc(CNC(=O)C(C)(C)C)c2Cl)nc2cc(C(=O)Nc3ccc(Br)cc3)c(F)cc21	8.70
Cn1c(Nc2c(Cl)ccc(CNC(=O)C(C)(C)C)c2Cl)nc2cc(C(=O)Nc3cccc(C#N)c3)c(OCC(F)F)cc21	8.52
CC(C)(C)C(=O)NCc1ccc(Cl)c(Nc2nc3cc(OC(F)F)c(C(=O)N[C@H]4CC[C@H](C(F)(F)F)CC4)cc3[nH]2)c1Cl	8.70
CC(C)(C)C(=O)NCc1ccc(Cl)c(Nc2nc3c(F)c(OCC(F)(F)F)c(C(=O)N[C@H]4CC[C@H](C(F)(F)F)CC4)cc3[nH]2)c1Cl	8.70
